The values below come from article PMC4376002 (Frontiers in Bioengineering and Biotechnology, 2015).

Molecules are shown by their SMILES. Converted amounts (≈) assume the structure as drawn.

The subject of one data set is Staphylococcus aureus. It is filed as cell-based.
Another data set addresses Mip of L. pneumophila (Legionella pneumophila subsp. pneumophila, UniProt Q5ZXE0). The data set is described as follows: biochemical. The format is biochemical.
Data set [1] has as its system Pseudomonas aeruginosa PA01. The format is cell-based.
In data set [2] the test system is L. pneumophila Corby (WT). The experiment in a line: microbe, parasite or virus in culture. It is filed as cell-based, Legionella pneumophila. To be noted: for MIC: Legionella pneumophila, 48 h, read-out: WT MIC, growth in YEB, 10 to 100 μM, 37°C, 2 days; for influence on the viability of wild type L. pneumophila: liquic culture.
For data set [3], the system named is L. pneumophila Corby in differentiated THP-1 macrophages. The format is cell-based, Legionella pneumophila. Particulars: compound added 2 h post infection, cfu/ml 24 h post infection; for concentration at which suppression of bacterial replication in THP-1 cells starts: 12.5 to 100 μM tested; for effect on bacterial replication in THP-1 cells: up to 100 μM.
Data set [4] deals with Salmonella enterica subsp. Enterica. The format is cell-based.
Data set [5] deals with Yersinia pseudotuberculosis. The format is cell-based. To be noted: LB medium, data not shown.
The subject of another data set is Klebsiella aerogenes. It is filed as cell-based.
The target of another data set is human FKBP12 (Homo sapiens, UniProt P62942). The experiment in a line: biochemical.
Sequence of human FKBP12 (P62942 whole entry): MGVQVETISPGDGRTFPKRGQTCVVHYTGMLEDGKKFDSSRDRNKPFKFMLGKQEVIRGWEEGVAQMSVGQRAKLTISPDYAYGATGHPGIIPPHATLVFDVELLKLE
The test system of the next data set is Escherichia coli K12. The format is cell-based.
Data set [6] deals with Mip-like protein of Burkholderia pseudomallei (BpML1). To be noted: ref Norville et al., 2011; read-out: IC50-value toward BpML1; cited from earlier work.
[7] abbreviates: growth in YEB, 10 to 100 μM, 37°C, 2 days.

Sequence of Mip of L. pneumophila (Q5ZXE0 21-233 limits assumed): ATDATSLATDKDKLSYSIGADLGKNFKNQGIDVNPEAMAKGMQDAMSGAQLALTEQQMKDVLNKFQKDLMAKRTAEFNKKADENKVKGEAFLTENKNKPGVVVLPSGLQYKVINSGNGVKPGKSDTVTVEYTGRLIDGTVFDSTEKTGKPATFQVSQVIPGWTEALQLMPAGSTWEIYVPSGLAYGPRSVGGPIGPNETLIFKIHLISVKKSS

By IC50 is commonly meant the midpoint of a concentration-inhibition curve. Regarding `CC1CC(C)C(=O)C(C(O)CC2CC(=O)N(CC(=O)NC34CC5CC(C)(CC(C)(C5)C3)C4)C(=O)C2)C1` (centres unmarked) [MT_30.32], in the data set on Staphylococcus aureus, the “effect on growth of S. aureus” value is listed as “none of the tested strains were affected in their growth”. At Mip of L. pneumophila, the concentration for half-maximal inhibition (IC50) worked out at 1.7 ± 0.2 µM and the “IC50-value for Mip relative to FKBP12 (fold higher; FKBP12 inhibited x-fold better)” value amounted to 10 fold. For the same compound, in [1], the “effect on growth of P. aeruginosa PA01” value is recorded as “none of the tested strains were affected in their growth”. Further, the MIC in data set [2] was at least 30 µM. In [3], the “concentration at which suppression of bacterial replication in THP-1 cells starts” value is 50 µM and the “effect on bacterial replication in THP-1 cells” value (“effect on bacterial replication” for short) is recorded as “effectively suppressed bacterial replication”. Also, the “effect on growth of S. enterica subsp. enterica” value in data set [4] was “none of the tested strains were affected in their growth”. In addition, in data set [5], the “effect on growth of Y. pseudotuberculosis” value was “none of the tested strains were affected in their growth”. Besides, the “cytotoxicity to THP-1 cells” value with THP-1 cells is recorded as “without having cytotoxic side effects”. In addition, the “effect on growth of K. aerogenes” value with Klebsiella aerogenes was “none of the tested strains were affected in their growth”. On human FKBP12, the IC50 turned out to be 0.18 ± 0.05 µM. Further, the “effect on growth of E. coli K12” value with Escherichia coli K12 is given as “none of the tested strains were affected in their growth”.
Regarding `C[C@@H]1CC([C@H](O)CC2CC(=O)N(CC(=O)NC34CC5CC(CC(O)(C5)C3)C4)C(=O)C2)C(=O)[C@@H](C)C1` (some centres unmarked) [MT_30.38], the IC50 worked out at 21.8 ± 3.3 µM against Mip of L. pneumophila and 1.2 ± 0.1 µM against human FKBP12. The “WT Inhibition” value in data set [2] (setting [7]) is “- (no inhibition of growth at the highest tested concentration of 100 μM)”. In data set [2] (10 to 100 μM), the “influence on the viability of wild type L. pneumophila” value (from here on “influence on the viability”) was “no influence”.
Regarding `CCC12CC3CC(C1)CC(NC(=O)CN1C(=O)CC(C[C@@H](O)C4C[C@@H](C)C[C@H](C)C4=O)CC1=O)(C3)C2` (some centres unmarked) [MT_30.51], at Mip of L. pneumophila, it took 5.6 ± 1.1 µM to reach half-maximal inhibition (IC50) and the “IC50-value for Mip relative to FKBP12 (fold higher; FKBP12 inhibited x-fold better)” value was “about 25 fold”. Further, the MIC in [2] was at least 30 µM. Also, in data set [3], the “concentration at which suppression of bacterial replication in THP-1 cells starts” value amounted to 50 µM and the “effect on bacterial replication” value is recorded as “effectively suppressed bacterial replication”. The “cytotoxicity to THP-1 cells” value in the data set on THP-1 cells is listed as “without having cytotoxic side effects”. In addition, inhibition against human FKBP12 was half-maximal at 0.19 ± 0.06 µM (IC50).
As to `CC1CC(C)C(=O)C(C(O)CC2CC(=O)N(CC(=O)NC34CC5(C)CC(C)(CC(O)(C5)C3)C4)C(=O)C2)C1` (centres unmarked) [MT_30.79], the concentration for half-maximal inhibition (IC50) at Mip of L. pneumophila came out at 4.9 ± 0.9 µM; at human FKBP12 it was 0.22 ± 0.02 µM. Besides, the “IC50-value for Mip relative to FKBP12 (fold higher; FKBP12 inhibited x-fold better)” value against Mip of L. pneumophila was “about 25 fold”. Further, the “WT Inhibition” value in [2] (setting [7]) is on record as “- (no inhibition of growth at the highest tested concentration of 100 μM)”. In addition, the “influence on the viability” value in [2] (10 to 100 μM) was “no influence”.
With `CCOC(=O)CN1C(=O)CC(CC(O)C2CC(C)CC(C)C2=O)CC1=O` (centres unmarked) [Cycloheximide-N-ethylethanoate], the half-maximal inhibitory concentration (IC50) in data set [6] is 6.5 ± 1 µM.
On to `C[C@@H]1CC([C@H](O)CC2CC(=O)N(CC(=O)NC34CC5CC(CC(C5)C3)C4)C(=O)C2)[C@@H](O)[C@@H](C)C1` (some centres unmarked) [MT_30.93], for which the IC50 came out at 16.3 ± 2.6 µM on Mip of L. pneumophila and 0.9 ± 0.05 µM at human FKBP12. Further, in [2], the MIC is at least 30 µM.
Take `CO[C@H]1C[C@@H]2CC[C@@H](C)[C@@](O)(O2)C(=O)C(=O)N2CCCC[C@H]2C(=O)O[C@H]([C@H](C)C[C@@H]2CC[C@@H](O)[C@H](OC)C2)CC(=O)[C@H](C)/C=C(\C)[C@@H](O)[C@@H](OC)C(=O)[C@H](C)C[C@H](C)/C=C/C=C/C=C/1C` [Rapamycin, reference compound]: the MIC in data set [2] was at least 40 µM. The “WT MIC” value in data set [2] (setting [7]) stood at 40 µM.
As for `C[C@@H]1CC([C@H](O)CC2CC(=O)N(CC(=O)NC34CC5CC(CC(C5)C3)C4)C(=O)C2)[C@H](O)[C@@H](C)C1` (some centres unmarked) [MT_30.92], the IC50 against Mip of L. pneumophila came out at 12.6 ± 1.4 µM; against human FKBP12, 1 ± 0.1 µM. In addition, the MIC in data set [2] is at least 30 µM.
Consider `C[C@@H]1CC([C@H](O)CC2CC(=O)N(CC(=O)N(C)C(C)(C)C)C(=O)C2)C(=O)[C@@H](C)C1` (some centres unmarked) [MT_30.9], for which the values for the half-maximal inhibitory concentration (IC50) against Mip of L. pneumophila and at human FKBP12 were 31.7 ± 7.4 µM and 36.1 ± 4.1 µM, respectively. For the same compound, the “fold less effective than MT_30.32 in the protease coupled PPIase-assay” value on Mip of L. pneumophila is “about 18 fold”. In addition, the MIC in data set [2] was found to be 30 µM (≈ 12.3 µg/mL). Moreover, in [3], the “effect on bacterial replication” value is reported as “no effect”.
`C[C@@H]1CC([C@H](O)CC2CC(=O)N(CC(=O)NC34CC5CC(CC(C5)C3)C4)C(=O)C2)C(=O)[C@@H](C)C1` (some centres unmarked) [MT_30.8]: the IC50 on Mip of L. pneumophila is 8.5 ± 2.1 µM; at human FKBP12, 0.4 ± 0.04 µM. In addition, the “WT Inhibition” value in data set [2] (setting [7]) is listed as “- (no inhibition of growth at the highest tested concentration of 100 μM)”. Besides, the “influence on the viability” value in data set [2] (10 to 100 μM) is recorded as “no influence”.
With `C[C@@H]1CC([C@H](O)CC2CC(=O)N(CC(=O)NC(C)(C)C)C(=O)C2)C(=O)[C@@H](C)C1` (some centres unmarked) [MT_30.3], the IC50 on Mip of L. pneumophila worked out at 33.8 ± 8.6 µM. In addition, the “WT Inhibition” value in [2] (setting [7]) is on record as “- (no inhibition of growth at the highest tested concentration of 100 μM)”. The “influence on the viability” value in data set [2] (10 to 100 μM) is “no influence”.
